Results reported in patent publication US5098613A, “Anti-inflammatory agents” (Eli Lilly and Company, priority 1990, dated 1992).

How the values were obtained:
[1] = tested on: shock after E. coli LPS and galactosamine (GALN) challenge; experiment: Mouse Endotoxin Shock Assay; assay type: in vivo, C57BL/6 male mice; conditions: LPS/GALN s.c. challenge, results 48 hours after challenge, Reed Muench Method
Experimental: Compounds were given to 18-20 g C57BL/6 male mice using various regimens depending upon mode of administration. Control animals received corresponding vehicles only. The mice were then challenged with 0.2 ml of chromatographically purified 0111:B4 E. coli LPS and galactosamine hydrochloride (GALN) given subcutaneously (back of the neck). GALN was given at an approximate dose of 500 mg/kg whereas the LPS dose ranged between 0.3-1.2 μg/mouse (15-60 μg/k9). Control animals generally die of shock 7-15 hours after administration of LPS/GALN although a small number (0-5%) may die 24-48 hours after such administration. Calculation of the EDso for each compound was performed using the Reed Muench Method for results obtained 48 hours after challenge.

[2] = tested on: inflammation created by injecting carrageenin into the hind paws of rats; experiment: Carrageenin Assay; assay type: in vivo; conditions: Rattus norvegicus, ip, 50 mg/kg i.p., prior to carrageenin injection, read-out: Percent Inhibition (Antiinflammatory Activity in the Carrageenin Assay)
Experimental: The compounds were evaluated for antiinflammatory activity in the test method described by C. A. Winter, Proc. Soc. Exp. Biol. Med., 111, 544 (1962). In this test, inflammation is created by injecting carrageenin into the hind paws of rats. Test compounds are administered prior to injection to determine percent inhibition of the subsequent inflammation in comparison with control animals.

[3] = target: T1, leukotriene B4 specific receptor on the membrane of human neutrophils (Homo sapiens, UniProt Q15722); experiment: Inhibition of Binding of ^3 H-LTB4 to Peripheral Human Neutrophils; conditions: 4° C., 10 minutes; for inhibition at 10 µM: drug concentration 10^-5 M, read-out: LTB4 Binding Inhibition; for inhibition at 1 µM: drug concentration 10^-6 M
T1 construct: incubating neutrophils (1×10^7 cells) with 0.1-0.2 nM ^3 H-LTB4; endogenous in cells; host or cells: human peripheral blood neutrophils (buffy coats of two blood donors)
T1 sequence (Q15722 whole entry): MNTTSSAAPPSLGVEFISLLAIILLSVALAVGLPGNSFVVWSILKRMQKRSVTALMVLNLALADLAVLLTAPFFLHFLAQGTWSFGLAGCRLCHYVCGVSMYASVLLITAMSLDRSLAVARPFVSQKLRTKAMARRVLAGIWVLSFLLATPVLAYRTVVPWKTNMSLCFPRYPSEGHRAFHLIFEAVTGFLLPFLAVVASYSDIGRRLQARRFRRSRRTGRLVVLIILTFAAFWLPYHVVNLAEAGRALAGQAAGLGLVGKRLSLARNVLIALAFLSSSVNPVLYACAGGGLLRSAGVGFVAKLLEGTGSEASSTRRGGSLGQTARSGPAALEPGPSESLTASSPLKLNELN
In short: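 Freshly isolated human donor neutrophils (1×10^7 cells) in HBSS/0.1% ovalbumin pH 7.3 were incubated with 0.1-0.2 nM ^3H-LTB4 and compound at 1×10^-5 or 1×10^-6 M for 10 min at 4 °C. Bound ligand was separated by centrifugation through phthalate oil and counted, then corrected for nonspecific binding and compared with compound-free control.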

[4] = tested on: Arachidonic Acid Induced Ear Edema; experiment: Arachidonic Acid-Induced Ear Edema Assay; assay type: in vivo, Female BALB/C mice; conditions: Mus musculus, 1 h, topical, one hour prior to arachidonic acid, read-out: Percent Inhibition of Ear Swelling; for inhibition in vivo at 1 %: 1% in ethanol gel
Experimental: Female BALB/C mice (Charles River; 18-20 rams) were divided into groups of five. Arachidonic acid was dissolved in ethanol at a concentration of 200 mg/ml. Each mouse received 2 mg/ear of arachidonic acid on the inner surface of the right ear. This dose of phlogistic was applied by an automatic pipette in 10 mcl volumes. The left ear (control) received ethanol. Drugs were applied topically in an ethanol-based gel to the entire outer surface of both ears one hour prior to arachidonic acid application. Edema was measured by the increase in ear weight. An hour after arachidonic acid solution or vehicle was applied, an ear sample of 7 mm in diameter was obtained from both ears. Ear edema was calculated by subtracting the […], dividing by the weight of the left/Control ear, and averaging the results for each group of mice according to compound and concentration.

[5] = tested on: IL-1 induced T-cell Proliferation; experiment: Anti IL-1 Activity (Thymocyte Assay): suppression of IL-1 induced T-cell proliferation; assay type: cell-based, C3H/HeJ male mice; conditions: mouse thymocytes, 48 hours, read-out: Percent T-cell suppression; for inhibition at 1 µg/mL: 1 mcg/ml; for inhibition at 10 µg/mL: 10 mcg/ml
Experimental: Thymus from 3-4 week old C3H/HeJ male mice and were passed through a #100 mesh screen to make a single cell suspension. The cells were suspended in RPMI-1640 supplemented with 2×10^-5 M 2-mercaptoethanol, 3% fetal calf serum, and 1% Penicillin/Streptomycin. The cell suspension was placed in a tissue culture flask and incubated at 37° C. in 5% carbon dioxide in air for 1-2 hours. The thymocytes were decanted, leaving adherent cells behind, and the liquid was centrifuged at 1400 rpm for 10 minutes. After decanting the supernatant, the cells were resuspended and counted with a hemocytometer. The density was adjusted to […]. Fifty μ1 of the suspension were added to each well of a 96-well microtiter plate, followed by the addition of 25 μl of PHA and 25 μl IL-1 (1:25 dilution of a 10 mcg/ml stock solution) per well.
Each compound to be tested was dissolved in 30% DMSO/70% PBS to make a stock solution of 1 mg/ml. Fifteen μl of each compound were added to 300 μl of media in the serial dilution plate. Twenty-five μl of each drug were added to the test plate in quadruplicate wells across the plate. The plate was incubated at 37° C. in 5% carbon dioxide in air for 48 hours. The wells were pulsed with tritiated thymidine (5 μCi.well) for 4 hours before harvesting on a Skatron cell harvester. The filter discs were placed in mini-vials, scintillation fluid (Tol-Pop) was added, and the vials counted. The percent of counts for each vial compared with control samples wherein no compound was added (vehicles only) was determined for each compound and are reported as Table III below as the percent T-ce1 suppression.

SMILES | ED50 [1] | inhibition in vivo at 50 mg/kg [2] | inhibition at 10 µM [3] | inhibition at 1 µM [3] | inhibition in vivo at 1 % [4] | inhibition at 1 µg/mL [5] | inhibition at 10 µg/mL [5] | inhibition in vivo at 0.028 % ([4]; 0.028% in ethanol gel) | inhibition at 0.1 µM ([3]; drug concentration 10^-7 M)
CCc1cc(C(C)=O)c(O)cc1OCCCCCC(C)(C)C#N [Example 68, 4-(6-Cyano-6-methylheptyloxy)-5-ethyl-2-hydroxyacetophenone] | > 50 mg/kg | 33% | 84% | 53% | 46% | 13% | 99% | – | –
CCc1cc(C(C)=O)c(O)cc1OCCCCCC[S+](C)[O-] (stereo not shown) [Example 82, 2-Hydroxy-4-[6-(methylsulfinyl)hexyl-oxy]-5-ethylacetophenone] | > 50 mg/kg | 31% | 91% | 50% | 9% | 21% | 88% | – | –
CCc1cc(C(C)=O)c(O)cc1OCCCCCCS(C)(=O)=O [Example 83, 2-Hydroxy-4-[6-(methylsulfonyl)hexyl-oxy]-5-ethylacetophenone] | > 50 mg/kg | 26% | 98% | 61% | – | 29% | 43% | 59% | –
CCc1cc(C(C)=O)c(O)cc1OCCCCCC(C)(C)c1nn[nH]n1 [Example 108, 5-Ethyl-2-hydroxy-4-[6-methyl-6-(1H-tetrazol5-yl)heptyloxy]acetophenone] | > 50 mg/kg | 61% | 105% | 96% | 60% | – | – | – | 60%
CCc1cc(C(C)=O)c(O)cc1OCCCCc1nnnn1C [Example 122, 2-Hydroxy-4-[4-(1-methyl-lH-tetrazol-5-yl)butoxy]-5-ethylacetophenone] | 42 mg/kg | 53% | 66% | 24% | 10% | 37% | 87% | – | –
